# Measurements from ChEMBL document CHEMBL1201862, “PubChem BioAssay data set” (2004).
#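 Cultured in 96-well plates, cells were exposed to test compound for 48 hours across five concentrations. GI50: concentration for 50% inhibition of growth.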 Active and inactive are the calls of the source. Cut-off read from the data, not from the text of the source: active = GI50 up to about 1.1 µM and inactive = higher.
# Assays:
# Assay in all cases: growth of human tumour cells (NCI), 48 h
# [1] = test system: NCI-H522
# [2] = test system: SK-OV-3
# [3] = test system: HOP-92
# [4] = test system: EKVX
# [5] = test system: LOX IMVI
# [6] = test system: OVCAR-3
# [7] = test system: SF-268
# [8] = test system: MOLT-4
# [9] = test system: HCC 2998
# [10] = test system: RPMI-8226
# [11] = test system: HOP-62
# [12] = test system: SF-539
# [13] = test system: K562
# [14] = test system: HL-60
# [15] = test system: U-251
# [16] = test system: NCI-H460
SMILES,GI50 [1],GI50 [2],GI50 [3],GI50 [4],GI50 [5],GI50 [6],GI50 [7],GI50 [8],GI50 [9],GI50 [10],GI50 [11],GI50 [12],GI50 [13],GI50 [14],GI50 [15],GI50 [16]
CCOC(=O)C1=C(C)NC2=C(C(=O)N(c3ccccc3)C2c2ccccc2)C1c1ccccc1 (stereo not drawn),12.6 µM (inactive),17.1 µM (inactive),11.2 µM (inactive),17.9 µM (inactive),18.1 µM (inactive),12.3 µM (inactive),15.7 µM (inactive),19.8 µM (inactive),17.7 µM (inactive),17.1 µM (inactive),17.1 µM (inactive),17.8 µM (inactive),29.9 µM (inactive),26.1 µM (inactive),15.1 µM (inactive),
CC(=O)n1c(=O)c2cc3c(=O)n(-c4cccc(C#N)c4)c(=O)c3cc2c1=O,> 100 µM (inactive),> 100 µM (inactive),39.2 µM (inactive),> 100 µM (inactive),> 100 µM (inactive),> 100 µM (inactive),> 100 µM (inactive),,> 100 µM (inactive),,45.5 µM (inactive),> 100 µM (inactive),> 100 µM (inactive),> 100 µM (inactive),24.2 µM (inactive),> 100 µM (inactive)
Cc1cc(C)n2c(-c3ccccc3)c(C)cc2n1,21.2 µM (inactive),60.3 µM (inactive),53.2 µM (inactive),64 µM (inactive),65 µM (inactive),25.6 µM (inactive),> 100 µM (inactive),,34.8 µM (inactive),,53.7 µM (inactive),24.3 µM (inactive),8.17 µM (inactive),5.68 µM (inactive),34 µM (inactive),37.3 µM (inactive)
O=C(NN1C(=O)C(Cl)C1c1ccccc1Cl)c1ccccc1O (stereo not drawn),> 100 µM (inactive),> 100 µM (inactive),,,> 100 µM (inactive),> 100 µM (inactive),71.1 µM (inactive),> 100 µM (inactive),> 100 µM (inactive),,,> 100 µM (inactive),> 100 µM (inactive),> 100 µM (inactive),> 100 µM (inactive),> 100 µM (inactive)
O=[N+]([O-])C1C2C=CC(C2)[C@H]1c1ccco1 (stereo partly drawn),> 100 µM (inactive),> 100 µM (inactive),0.259 µM (active),> 100 µM (inactive),> 100 µM (inactive),> 100 µM (inactive),> 100 µM (inactive),> 100 µM (inactive),> 100 µM (inactive),,> 100 µM (inactive),> 100 µM (inactive),> 100 µM (inactive),> 100 µM (inactive),> 100 µM (inactive),> 100 µM (inactive)
Cn1c(O)c(C(=O)Nc2cccs2)c(=O)[nH]c1=S,13.5 µM (inactive),16 µM (inactive),12.6 µM (inactive),,15.7 µM (inactive),19.9 µM (inactive),18.8 µM (inactive),24.7 µM (inactive),,19.5 µM (inactive),17.4 µM (inactive),16.5 µM (inactive),51.9 µM (inactive),78.9 µM (inactive),14.8 µM (inactive),19.4 µM (inactive)
CCOP(=O)(OCC)C1CCCOC1=O (stereo not drawn),,> 100 µM (inactive),,> 100 µM (inactive),> 100 µM (inactive),> 100 µM (inactive),> 100 µM (inactive),> 100 µM (inactive),> 100 µM (inactive),> 100 µM (inactive),> 100 µM (inactive),> 100 µM (inactive),> 100 µM (inactive),> 100 µM (inactive),> 100 µM (inactive),> 100 µM (inactive)
CC1OC(OCC2COC(O)(Oc3c(-c4ccc(O)c(O)c4)oc4cc(O)cc(O)c4c3=O)C(O)C2O)C(O)C(O)C1O (stereo not drawn),,> 100 µM (inactive),> 100 µM (inactive),> 100 µM (inactive),> 100 µM (inactive),> 100 µM (inactive),> 100 µM (inactive),> 100 µM (inactive),> 100 µM (inactive),> 100 µM (inactive),> 100 µM (inactive),> 100 µM (inactive),> 100 µM (inactive),> 100 µM (inactive),> 100 µM (inactive),> 100 µM (inactive)
COc1ccc(-c2cc(=O)c3c(O)cccc3o2)c(OC)c1OC,> 100 µM (inactive),> 100 µM (inactive),19.9 µM (inactive),,55.2 µM (inactive),> 100 µM (inactive),> 100 µM (inactive),12.9 µM (inactive),> 100 µM (inactive),> 100 µM (inactive),10.3 µM (inactive),20.6 µM (inactive),6.59 µM (inactive),10.1 µM (inactive),16.1 µM (inactive),80 µM (inactive)
Cc1nn(-c2ccccc2)c(-c2ccccc2[N+](=O)[O-])c1CC#N,22.2 µM (inactive),> 100 µM (inactive),27.8 µM (inactive),> 100 µM (inactive),> 100 µM (inactive),62.1 µM (inactive),> 100 µM (inactive),67.3 µM (inactive),> 100 µM (inactive),63.2 µM (inactive),> 100 µM (inactive),> 100 µM (inactive),59.2 µM (inactive),69.5 µM (inactive),,> 100 µM (inactive)
